Laboratory results from US20040223918A1, “Aerosolization of cromolyn sodium using a capillary aerosol generator” (Chrysalis Technologies Incorporated, priority 2003, published 2004).

Assays:
[1] = cited from earlier work
[2] = Solubility of cromolyn sodium in ethanol and PG/EtOH mixtures; assay type: physicochemical; conditions: Table 4 PG/EtOH mixtures, 0.25% Brij30 and 0.25% lecithin
Source text: FIG. 7 is a graph illustrating the solubility of cromolyn sodium in various propylene glycol/ethanol (PG/EtOH) mixtures, with 0.25% Brij30 and 0.25% lecithin. […] When formulated with 0.25% w/v Brij 30 and 0.25% lecithin, cromolyn sodium suspension formulations remained visually stable over a period of one to two weeks. There was no significant change in the particle size distribution of the suspended particles up to three days of standing at ambient condition. The addition of PG was primarily to prevent capillary clogging. The amount of PG required in the formulation was dependent on the API concentration.

- solubility in PG/EtOH mixtures [2]: almost insoluble
Structure (SMILES): O=C(O)c1cc(=O)c2c(OCC(O)COc3cccc4oc(C(=O)O)cc(=O)c34)cccc2o1 [cromolyn sodium]
- solubility in ethanol [1]: virtually insoluble
